Experimental findings from ChEMBL document CHEMBL1159273, “[Cytotoxicity of aspidospermane indole alkaloids with a modified tryptamine chain]” (J Nat Prod, 1995) are described below.

For the test, the system named is L1210. The test is described as follows: Cytotoxicity against mouse L1210 cells after 48 hrs by MTT method. The format is functional, cell-based. To be noted: L1210, 48 h. Background: Tetrazolium assays rely on reduction of a dye to a coloured formazan, in cell work by metabolically active cells.
As a reminder, the IC50 is the point on the concentration scale where inhibition reaches its midpoint. Low values mean greater potency in that assay, high ones weaker potency in that assay. As to `CC[C@]12CCCN3CC[C@@]4(c5ccccc5N5[C@H]4[C@]5(C(=O)OC)C1)[C@@H]32`, the IC50 was found to be 156 µM.
The figure for `CC[C@]12CCCN3C[C@@H](Br)[C@@]4(c5ccccc5N5[C@H]4[C@]5(C(=O)OC)C1)[C@@H]32` is 141 µM; for `CC[C@]12CCC[N+]3([O-])CC[C@]4(C(=Nc5ccccc54)[C@@](Cl)(C(=O)OC)C1)[C@H]23` (some centres not stated) it is 27.4 µM; for `CC[C@]12CCCN3C[C@@H](Br)[C@@]4(c5ccccc5N[C@H]4[C@@](Cl)(C(=O)OC)C1)[C@@H]32` it is 46.8 µM.
Then `COc1cccc2c1C(=O)c1c(O)c3c(c(O)c1C2=O)C[C@@](O)(C(=O)CO)C[C@@H]3O[C@H]1C[C@H](N)[C@H](O)[C@H](C)O1` [DOXORUBICIN], with 0.03 µM; and `CC[C@]12CCC[N+]3([O-])C[C@@H](Br)[C@]4(C(=Nc5ccccc54)[C@@](Cl)(C(=O)OC)C1)[C@H]23` (some centres not stated), with 14.1 µM.
`CC[C@]12CCCN3[C@@H](OC)C[C@]4(C(=Nc5ccccc54)[C@@](Cl)(C(=O)OC)C1)[C@@H]32`: the IC50 is 3.1 µM.
